Patent US20170112748A1, “N-ACYLPEPTIDE DERIVATIVES AND THEIR USES” (NeoStrata Company, Inc., priority 2012, published 2017)

Assays:
Assay type in all cases: in vivo, human
[1] = summary of test results in volunteer subjects, efficacy grades; conditions: efficacy grade
From the text: Subject 1. Person had multiple red and itchy inflammation, dermatitis, or eczema lesions, which were resistant to conventional treatments including corticosteroids. Subject 2. Person had small red and itchy lesions which were resistant to topical corticosteroid treatment. Subject 3. Person had multiple red and itchy inflammation, dermatitis, or eczema lesions over the body for many years, which were resistant to conventional treatments including corticosteroids. Subject 4. Person had red and itchy inflammation, dermatitis, or eczema lesions for many years, which were resistant to topical corticosteroid treatment. Subject 5. Person had early stage of aging related skin changes on both forearms as indicated by age spots and wrinkled skin caused by solar damage. Subject 6. Person had age spots, keratoses and wrinkles on both forearms caused by intrinsic and extrinsic aging. Subject 7. Person had age spots, and wrinkles on both forearms caused by intrinsic and extrinsic aging. Subject 8. Person had osteoarthritis of both knees with inflammation and pain for more than 4 years, and had only mild transitory relief from conventional treatments. Subject 9. Person had sensitive skin with inflammatory lesions on the body. Subject 12. Person had dermatitis and inflammatory lesions on the left palm. Subject 14. Person had multiple age spots including lentigines and keratosis on their face. Subject 15. Person had psorisis Subject 16. Person had sensitive skin and eczema for more than 40 years
In another embodiment, the volunteer subject topically applied the test compositions containing N-acylpeptide derivatives of the present invention on involved skin or lesions once or twice daily for several weeks or until the involved lesions completely cleared and clinically changed to normal skin. As a control study, the subject also topically applied a vehicle control composition on the involved skin or lesions twice daily for the same period.
In yet another embodiment, the volunteer subject topically applied once or twice daily the test compositions containing N-acylpeptide derivatives of the present invention on the skin site above arthritic joints or painful muscles to provide therapeutic effects for the systemic disorders via topical administration.
In yet another embodiment, the volunteer subject injected intra-articularly into a knee joint a test composition containing a N-acylpeptide derivative of the present invention to improve and reduce arthritic inflammation and pain of the joint.
Some test results are summarized as follows.
DK: Disturbed keratinization AG: Aging related changes of skin, nail and hair DI: Deranged immune disorders and inflammation ND: Nerve disorders CA: Tumors and/or cancers

[2] = topical treatment of chronic dermatoses with scaly skin and itch, clinical evaluation; conditions: Example 11: subject
From the text: The subject topically applied twice daily a pentapeptide derivative, N-Ac-L-Ala-L-Leu-L-Lys-L-His-L-Arg-NH2 (SEQ ID NO: 51) 0.2% (w/v) in WEP442, pH 3.4, as prepared in Example 2. […] The treated skin had 80-90% improvement as judged by clinical evaluation.

[3] = topical treatment of chronic inflammation, erythema, eczema with thick scales and itch, clinical evaluation; conditions: Example 10: subject, -NH2 0.3% and -OEt 0.5% (w/v) in WEP442
From the text: The involved skin was divided into two lesions for testing. The subject topically applied twice daily to one lesion, N-Ac-L-Tyr-L-Tyr-L-Tyr-NH2 0.3% (w/v) in WEP442, pH 5.9 solution composition, prepared according to Example 2, and to second lesion, N-Ac-L-Tyr-L-Tyr-L-Tyr-OEt 0.5% (w/v) in WEP 442, pH 6.0, prepared according to Example 2. […] The treated skin had 90-95% improvement as judged by clinical evaluation.

[4] = appetite for food after topical application on forehead; conditions: Example 12: subject, 0.3% (w/v) in WEP442 once on forehead one hour before dinner
Description: A subject, having normal and regular eating habit, topically applied once N-Ac-L-Tyr-L-Tyr-L-Tyr-NH2, 0.3% (w/v) in WEP442, pH 5.9 prepared according to Example 2 on their forehead one hour before the regular dinner time. After about 50-60 minutes of the topical application, the subject strated to feel loss of appetite for food.

[5] = topical treatment of plaque psoriasis, clinical evaluation; conditions: Example 13: subject, 0.2% (w/w) in cream twice daily, 3 weeks
From the text: A subject, having plaque psoriasis, topically applied twice daily N-Ac-L-Tyr-L-Tyr-L-Tyr-NH2 0.2% (w/w) in cream to plaque lesions for 3 weeks. The treated lesions started to improve after a few days of topical application. […] The treated lesions had 40-50% improvement as judged by clinical evaluation.

[6] = skin plump / skin thickness test after topical application, caliper measurement
Description: In one of the studies related to skin changes associated with aging, skin thickness was measured by micrometer calipers as follows.
The skin was grasped with a 2×6 cm metal hinge: the internal faces of which were coated with emery cloth to prevent slippage, and manually squeezed to threshold subject discomfort. Combined thickness of two whole-skin layers including thickness of the two hinge leaves was measured with micrometer calipers. Thickness of the two hinge leaves was subtracted to determine the actual thickness of two whole-skin layers. Triplicate measurements on treated sites were done and an average number was used for calculation of the skin thickness.
In other studies, test sites of skin 17 mm in diameter were used, the circular sites were marked with permanent ink. Intervening control sites were also 17 mm in diameter. Thickness of skin of all sites was measured directly by means of an electronic digital caliper. In this instance the jaws of the caliper were opened to 17 mm, applied with pressure to the skin sites and then closed to firm tightness. Thickness of skin was then read off the screen of the calipers. Measurements of all sites were made in triplicates. […]

[7] = topical treatment of bilateral inter-metacarpal atrophy of hands; conditions: Example 23: subject, 1% (w/v) in WEP442 twice daily after the first course
From the text: A subject had bilateral inter-metacarpal atrophy of both hands with certain restrictions of hand movements. The subject topically applied two to three times daily N-Ac-L-Tyr-L-Tyr-L-Tyr-OEt, 2% (w/v) in EP73 on the back of their left hand, and vehicle control EP73 on the back of their right hand for three weeks.
The subject now, topically applied twice daily N-Ac-L-Tyr-L-Tyr-L-Tyr-NH2, 1% (w/v) in WEP442 on the back of their left hand as a mantenace therapy.

[8] = anxiety, stress and mood disorders after topical application on forehead; conditions: Example 16: subject, 0.2% in WEP442 on forehead, after two hours
From the text: A subject had mild forms of anxiety, stress and mood disorders which provoked restlessness, lack of concentration, and mild depression. […] The subject then topically applied N-Ac-L-Val-L-Tyr-L-Tyr-NH2, 0.2% in WEP442 on their forehead.

| Substance | AG: Aging related changes of skin, nail and hair [1] | DI: Deranged immune disorders and inflammation [1] | DK: Disturbed keratinization [1] | ND: Nerve disorders [1] | further results |
| --- | --- | --- | --- | --- | --- |
| N-Ac-L-Ala-L-Leu-L-Lys-L-His-L-Arg-NH2 (Ac-ALKHR-NH2) | 3+ (3+: 75% Efficacy) | 4+ (4+: 95-100% Efficacy) | 3+ (3+: 75% Efficacy) | 3+ (3+: 75% Efficacy) | itch ([2]; 0.2% (w/v) in WEP442 pH 3.4 topical): stopped within a few minutes; improvement as judged by clinical evaluation ([2]; right leg, 0.2% (w/v) in WEP442 pH 3.4 twice daily, 2 weeks): 80-90% |
| N-Ac-L-Arg-L-Arg-L-Arg-NH2 | 2+ (2+: 50% Efficacy) | 2+ (2+: 50% Efficacy) | 2+ (2+: 50% Efficacy) | 2+ (2+: 50% Efficacy) |  |
| N-Ac-L-Ser-L-Ser-L-Ser-NH2 | 2+ (2+: 50% Efficacy) | 2+ (2+: 50% Efficacy) | 2+ (2+: 50% Efficacy) | 2+ (2+: 50% Efficacy) |  |
| N-Ac-L-Tyr-L-Tyr-L-Tyr-NH2 | 4+ (4+: 95-100% Efficacy) | 4+ (4+: 95-100% Efficacy) | 4+ (4+: 95-100% Efficacy) | 4+ (4+: 95-100% Efficacy) | itch [3]: stopped within a few minutes; amount of food eaten at dinner [4]: only half the amount of food they usually would consume; time after topical application until loss of appetite for food was felt [4]: 50 to 60 min; improvement of treated lesions as judged by clinical evaluation [5]: 40-50%; increase in skin thickness ([6]; Example 8: subject, severe photodamage, right wrist distal, 0.5% (w/v) in WEP721 three times daily, 7 days): 5-10%; increased skin thickness ([6]; Example 20: subject, photoaging forearms, 0.8% (w/v) in WEP442 three times daily, four weeks): ~15%; increased skin thickness ([6]; Example 20: subject, photoaging forearms, 1% (w/v) in WEP442 three times daily, four weeks): ~28%; increased skin thickness ([6]; Example 21: subject, sun damaged forearms, 1% (w/v) in WEP442 three times daily, one week): ~24%; inter-metacarpal atrophy of left hand, maintenance therapy [7]: continued to improve with no signs of inter-metacarpal atrophy |
| N-Ac-L-Val-L-Tyr-L-Tyr-NH2 | 3+ (3+: 75% Efficacy) | 2+ (2+: 50% Efficacy) | 2+ (2+: 50% Efficacy) | 4+ (4+: 95-100% Efficacy) | effect on anxiety, stress and mood disorders [8]: anxiety, stress and mood disorders started to disappear |
| N-Ac-L-Val-L-Val-L-Ala-NH2 | 2+ (2+: 50% Efficacy) | 2+ (2+: 50% Efficacy) | 2+ (2+: 50% Efficacy) | 3+ (3+: 75% Efficacy) |  |
| N-Bz-L-Ala-L-Leu-L-Lys-L-His-L-Arg-NH2 (ALKHR; HELM PEPTIDE1{[O=C(c1ccccc1)[*:2]].A.L.K.H.R.[am]}$$$$V2.0; SMILES CC(C)C[C@H](NC(=O)[C@H](C)NC(=O)c1ccccc1)C(=O)N[C@@H](CCCCN)C(=O)N[C@@H](Cc1c[nH]cn1)C(=O)N[C@@H](CCCNC(=N)N)C(N)=O) | 4+ (4+: 95-100% Efficacy) | 3+ (3+: 75% Efficacy) | 3+ (3+: 75% Efficacy) | 2+ (2+: 50% Efficacy) |  |
| N-Pr-L-Ala-L-Leu-L-Lys-L-His-L-Arg-NH2 (ALKHR; HELM PEPTIDE1{[CCC(=O)[*:2]].A.L.K.H.R.[am]}$$$$V2.0; SMILES CCC(=O)N[C@@H](C)C(=O)N[C@@H](CC(C)C)C(=O)N[C@@H](CCCCN)C(=O)N[C@@H](Cc1c[nH]cn1)C(=O)N[C@@H](CCCNC(=N)N)C(N)=O) | 2+ (2+: 50% Efficacy) | 2+ (2+: 50% Efficacy) | 2+ (2+: 50% Efficacy) | 2+ (2+: 50% Efficacy) |  |
